Source: patent US7173021B2, “Synthesis of temozolomide esters as potent anticancer pro-drugs for topical and transdermal applications in treatments of cancers” (Tianjin North Pharm Sci-Tech Co., Ltd., priority 2004, dated 2007)
≈ marks a conversion by molar mass, not a printed value.

Legend:
SHG-44 (human glioma) = experiment: In vitro tumour cell growth inhibition (MTT), SHG-44; type: cell-based; details: Homo sapiens, SHG-44, Table 2 experiment, 96 h
Procedure: (§1) Temozolomide (white powder), temozolomide acid (white powder) and temozolomide-8-carboxylate hexyl (white scale crystal) were made in house. For the estimation of in vitro tumour cell growth inhibition, MV3 (human melanoma), M14 (human melanoma), B16 and B16-BL6 (mouse melanoma), SHG-44, TJ899 and TJ905 (human glioma), MCF-7 (human breast), HCT-8 (human colon), A549 (human non small lung), Bel7402 (human hepatocellulor), and BGC-823 (human stomach) were used. All tumour cells were cultured in RPMI-1640 medium supplemented with 10% fetal bovine serum (FBS) at 37° C. in a humidified 5% CO2 incubator.
(§2) After being harvested from culture flasks, a cell suspension of 1×10^4/ml was made by using 1640 RPMI medium supplemented with 10% fetal bovine serum. 100 μl (contains 1000 tumour cells) of the cell suspension was seeded per well of 96-well flat-bottom Costar culture plates at 37° C. in a humidified 5% CO2 incubator for 24 hrs before introducing drugs. Each tested compounds was made for five different concentrations and 100 μl of the each concentration was introduced into parallel three wells; control wells were added with 100 μl of plain medium alone; fluorouracil (a chemotherapeutic antitumour drug) was used as the positive control. Cells were then incubated for 96 h. Proliferative response and cell death were determined using MTT (3-(4,5-dimethylthiazolyl)-2,5-diphenyl-tetrazolium bromide) assay.
(§3) MTT assay: Following incubation of cells with the tested compounds for 96 h, 100 μl of 0.4 mg/ml MTT in RPMI 1640 was added to each well and the plate was incubated at 37° C. for 4 h. The plate was then centrifuged and followed by removal of medium. 150 μl of DMSO was then added to dissolve formazan crystal. DMSO-added plates were placed on a plate shaker for 5 min and absorbance was measured spectrophotometrically at 540 nm (with reference wavelength at 450 nm) using a Benchmark microtiter plate reader (Bio-Rad 550, Bio-Rad Laboratories, CA, U.S.A.).
(§4) The IC50 was calculated from the curve of the tested compound concentrations against the inhibition rate of the tumour cells. Table 1 summarized the experiment results by using six human cancer cell lines, HCT-8 (colon carcinoma), A549 (non small lung carcinoma), MCF-7 (breast), Bel7402 (hepatocellulor carcinoma), BGC-823 (stomach adenocarcinoma), and MV3 (melanoma). Table 2 summarized the results from the experiment results by using two human melanoma cell lines, MV3 and M14, two mouse melanoma cell lines, B16 and B16-BL6, and three human glioma cell lines, TJ899, SHG-44 and TJ905.

TJ899 (human glioma) = experiment: In vitro tumour cell growth inhibition (MTT), TJ899; type: cell-based; details: Homo sapiens, Table 2 experiment, 96 h
Procedure: as §1, §2, §3, §4

HCT-8 (human colon) = experiment: In vitro tumour cell growth inhibition (MTT), HCT-8; type: cell-based; details: Table 1 experiment, 96 h
Procedure: as §1, §2, §3
(§5) The IC50 was calculated from the curve of the tested compound concentrations against the inhibition rate of the tumour cells. […]

BGC-823 (human stomach) = experiment: In vitro tumour cell growth inhibition (MTT), BGC-823; type: cell-based; details: Table 1 experiment, 96 h
Procedure: as §1, §2, §3, §5

[1] = In vitro permeation and metabolism, Franz diffusion cell, human skin; type: in vitro ADME
Text: Jacketed Franz-type diffusion cells were used throughout the study and the barrier (12) (skin or silicone membrane) was mounted between the two chambers (14, 16) (2.8–3.4 cm^2 available surface area) with the dermal side in contact with the receiver solution (FIG. 2). The diffusion chambers (10) comprised a barrier of skin or silicone membrane (12) mounted between two chambers (14, 16). A cap (18) formed the donor compartment (14). The second receptor compartment (16) contained a receptor cell (20) with a stirring bar (22), sampling port (24) and cover (26). The stirring bar (22) was stirred by means of a magnet plate (28) having a rotating magnet. The receptor compartment comprised a water jacket (30) having a water inlet (32) and a water outlet (34).
Three types of materials were used in permeation studies. • 1. Silicone membrane (Silastic Medical Grade, 500-5, Dow Corning 0.005 in thick) was cut into circular sections (2 cm diameter) and washed with double distilled water prior to use. • 2. Full-thickness rat skin was obtained from Male Wistar rats aged 10 to 12 weeks and weighing 250 to 300 g, which were sacrificed by cervical dislocation, the abdomen shaved and the intact skin removed by dissection. Following removal of fat tissue, the skin was cut into circular pieces and used immediately. • 3. Samples of adult human epidermis were purchased from the Stephen Kirby Skin Bank (UK). The samples were from the leg, were stored at −18° C. and used within one week. Experiments
The membrane (as detailed above) was mounted on the diffusion cell (10), on which the surface area available for diffusion of each cell was about 2.8–3.4 cm^2. The cell cap (18) was placed on the membrane (12), and it was sealed with Parafilm® connecting the cell cap, membrane, and receptor cell. […] The concentration of each sample solution was determined by using HPLC. […]
As stated above, after the removal of receptor solution, the receiver compartment was refilled with an identical volume of receptor fluid. […] As a consequence, it was necessary to mathematically correct each successive sample concentrations, in the present invention, which was determined by applying the following equation:
[formula] where Ct is the actual current concentration of drug in the receptor phase at time t, Cmt is the apparent (i.e. measured) current concentration of drug in the receptor phase, Vs is the sample volume withdrawn for analysis, Vr is the volume of receptor solution, and ΣCm is the summed total of the previous measured concentrations.
Finally, the amount of drug penetrating the skin per unit area was calculated by dividing the obtained concentrations by the surface area available for diffusion cell and this value was different for each individual cell. […]

[2] = Measured log P, octanol/water; type: physicochemical; details: octanol/water system; read-out: measured Log P (mLog P)
Procedure: Log P values of temozolomide (1) and the temozolomide esters were calculated using TSAR (Oxford Molecular, Oxford, UK), Molecular Modeling Pro (ChemSW, Fairfield, Calif.) and Chem Office 7.0 (CambridgeSoft, Cambridge, UK) programmes. Calculated Log P values were verified for temozolomide and the temozolomide hexyl ester by measuring the octanol/water coefficient (Table 4).

TJ905 (human glioma) = experiment: In vitro tumour cell growth inhibition (MTT), TJ905; type: cell-based; details: Homo sapiens, Table 2 experiment, 96 h
Procedure: as §1, §2, §3, §4

IC50 (SHG-44 (human glioma)): 9.46 µg/mL (≈ 33.9 µM)
IC50 (TJ899 (human glioma)): > 100 µg/mL
IC50 (HCT-8 (human colon)): 28.6 µg/mL (≈ 103 µM)
IC50 (BGC-823 (human stomach)): > 19.5 µg/mL
Permeation through human skin ([1]; 37° C., FIG. 9): notably better than temozolomide
logP [2]: 2.56
IC50 (TJ905 (human glioma)): > 100 µg/mL
Compound: CCCCCCOC(=O)c1ncn2c(=O)n(C)nnc12 [temozolomide hexyl ester, Hexyl 3,4-dihydro-3-methyl-4-oxoimidazo[5,1-d]-1,2,3,5-tetrazine-8-carboxylate]
Metabolism within human skin to temozolomide acid ([1]; human skin): completely metabolized into the temozolomide acid
